From ChEMBL document CHEMBL5244277, “A review upon medicinal perspective and designing rationale of DPP-4 inhibitors” (Bioorg Med Chem, 2021)
In brackets after ≈: the same amount, converted by molar mass.

Key:
Mus musculus [1] = assay: Antidiabetic activity in ICR mouse assessed as decrease in AUC of glucose at 3 mg/kg, po; type: functional; design: scale not given: the % may be the effect or the level left
Dipeptidyl peptidase 4 [2] = target: T1, Dipeptidyl peptidase 4 (Homo sapiens, UniProt P27487)
Target sequence in this assay (P27487 whole entry): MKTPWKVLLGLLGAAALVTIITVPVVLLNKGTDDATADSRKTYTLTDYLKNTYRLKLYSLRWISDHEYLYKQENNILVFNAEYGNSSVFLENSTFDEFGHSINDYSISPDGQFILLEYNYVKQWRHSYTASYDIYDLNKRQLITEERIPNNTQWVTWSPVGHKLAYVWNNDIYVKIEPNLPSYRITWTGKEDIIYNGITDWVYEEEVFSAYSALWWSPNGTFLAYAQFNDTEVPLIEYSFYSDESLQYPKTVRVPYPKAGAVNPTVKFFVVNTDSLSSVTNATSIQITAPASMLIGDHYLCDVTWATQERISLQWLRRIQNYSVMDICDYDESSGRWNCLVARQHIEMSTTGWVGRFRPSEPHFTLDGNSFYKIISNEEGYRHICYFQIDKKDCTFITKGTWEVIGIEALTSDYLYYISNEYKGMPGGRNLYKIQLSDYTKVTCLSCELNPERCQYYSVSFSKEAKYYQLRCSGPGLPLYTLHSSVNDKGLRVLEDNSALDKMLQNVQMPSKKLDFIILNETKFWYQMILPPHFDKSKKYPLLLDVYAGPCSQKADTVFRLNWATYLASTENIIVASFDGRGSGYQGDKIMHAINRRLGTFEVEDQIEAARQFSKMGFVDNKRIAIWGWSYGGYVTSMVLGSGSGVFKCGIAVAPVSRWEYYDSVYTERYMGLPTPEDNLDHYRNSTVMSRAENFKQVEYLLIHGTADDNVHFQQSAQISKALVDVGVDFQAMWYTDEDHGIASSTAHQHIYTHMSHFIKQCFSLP

Dipeptidyl peptidase 4 [3] = target: T1, Dipeptidyl peptidase 4; type: cell-based, Caco-2
Target sequence in this assay (P27487 whole entry): as above

Dipeptidyl peptidase 9 = Dipeptidyl peptidase 9 (Homo sapiens, UniProt Q86TI2); assay: Inhibition of DPP-9 (unknown origin)
Chain of Dipeptidyl peptidase 9 (Q86TI2 whole entry): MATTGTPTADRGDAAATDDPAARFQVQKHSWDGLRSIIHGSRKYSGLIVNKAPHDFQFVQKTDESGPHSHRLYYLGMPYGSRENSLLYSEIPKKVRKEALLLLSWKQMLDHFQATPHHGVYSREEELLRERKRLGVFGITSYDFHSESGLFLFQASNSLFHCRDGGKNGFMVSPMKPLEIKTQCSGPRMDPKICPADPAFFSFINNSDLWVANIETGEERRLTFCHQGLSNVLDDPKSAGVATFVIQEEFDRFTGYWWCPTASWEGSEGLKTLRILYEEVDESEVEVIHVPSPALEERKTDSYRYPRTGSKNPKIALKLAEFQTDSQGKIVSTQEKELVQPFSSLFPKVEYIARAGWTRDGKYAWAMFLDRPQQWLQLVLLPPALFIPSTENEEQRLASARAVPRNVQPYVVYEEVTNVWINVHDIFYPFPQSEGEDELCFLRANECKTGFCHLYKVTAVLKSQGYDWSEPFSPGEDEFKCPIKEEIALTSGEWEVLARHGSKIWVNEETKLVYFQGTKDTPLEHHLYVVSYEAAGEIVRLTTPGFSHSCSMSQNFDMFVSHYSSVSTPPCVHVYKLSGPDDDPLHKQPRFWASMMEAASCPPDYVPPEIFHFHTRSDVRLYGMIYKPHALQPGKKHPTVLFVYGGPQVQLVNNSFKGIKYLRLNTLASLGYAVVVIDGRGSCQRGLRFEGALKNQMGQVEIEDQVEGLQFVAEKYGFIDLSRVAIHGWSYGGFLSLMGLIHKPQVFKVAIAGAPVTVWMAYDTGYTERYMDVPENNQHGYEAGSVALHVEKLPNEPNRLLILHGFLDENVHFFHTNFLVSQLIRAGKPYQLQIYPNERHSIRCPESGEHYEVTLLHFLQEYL

Dipeptidyl peptidase 8 = Dipeptidyl peptidase 8 (Homo sapiens, UniProt Q6V1X1); assay: Inhibition of DPP-8 (unknown origin)
Chain of Dipeptidyl peptidase 8 (Q6V1X1 whole entry): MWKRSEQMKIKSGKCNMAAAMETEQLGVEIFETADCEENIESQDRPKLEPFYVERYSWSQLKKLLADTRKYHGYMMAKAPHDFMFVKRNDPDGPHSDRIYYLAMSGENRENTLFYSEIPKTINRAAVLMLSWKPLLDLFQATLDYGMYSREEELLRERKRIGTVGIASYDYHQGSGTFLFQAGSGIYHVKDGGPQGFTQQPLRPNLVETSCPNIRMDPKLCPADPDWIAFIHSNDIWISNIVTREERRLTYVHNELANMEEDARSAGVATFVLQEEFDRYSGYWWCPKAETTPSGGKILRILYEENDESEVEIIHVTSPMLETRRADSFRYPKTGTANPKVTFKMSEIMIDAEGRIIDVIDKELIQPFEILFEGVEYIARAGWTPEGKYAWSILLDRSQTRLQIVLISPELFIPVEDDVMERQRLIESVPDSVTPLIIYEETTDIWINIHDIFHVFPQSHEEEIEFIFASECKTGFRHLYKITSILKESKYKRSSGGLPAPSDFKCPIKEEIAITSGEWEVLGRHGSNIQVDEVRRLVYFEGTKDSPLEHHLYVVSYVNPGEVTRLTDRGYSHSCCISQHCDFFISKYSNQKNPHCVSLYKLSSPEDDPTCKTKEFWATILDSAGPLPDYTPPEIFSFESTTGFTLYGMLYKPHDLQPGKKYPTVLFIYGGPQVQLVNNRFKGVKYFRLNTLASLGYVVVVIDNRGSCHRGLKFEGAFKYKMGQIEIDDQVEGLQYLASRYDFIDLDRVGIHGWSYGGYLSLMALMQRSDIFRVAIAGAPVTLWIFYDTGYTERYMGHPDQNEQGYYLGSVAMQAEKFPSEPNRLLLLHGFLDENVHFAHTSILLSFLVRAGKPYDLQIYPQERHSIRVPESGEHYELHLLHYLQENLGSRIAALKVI

[4] = Antioxidant activity assessed as DPPH radical scavenging activity; type: functional
Dipeptidyl peptidase 4 [5] = target: T1, Dipeptidyl peptidase 4; assay: Inhibition of human recombinant DPP-4 using H-Gly-Pro-aminomethylcoumarin as substrate at 100 uM relative to control
Target sequence in this assay (P27487 whole entry, looked up): as the sequence (P27487 whole entry) above

Homo sapiens [6] = organism: Homo sapiens; assay: Selectivity index, ratio of IC50 for human recombinant DPP-4 to IC50 for human recombinant DPP-8
Dipeptidyl peptidase 4 [7] = target: T1, Dipeptidyl peptidase 4; assay: Inhibition of human recombinant DPP-4 using H-Gly-Pro-aminomethylcoumarin as substrate
Target sequence in this assay (P27487 whole entry): as above

Homo sapiens [8] = organism: Homo sapiens; assay: Selectivity index, ratio of IC50 for human recombinant DPP-4 to IC50 for human recombinant DPP-9
Dipeptidyl peptidase 4 [9] = target: T1, Dipeptidyl peptidase 4; assay: Inhibition of DPP4 (unknown origin) using Gly-Pro-AMC as substrate incubated for 30 mins by spectroscopic analysis
Target sequence in this assay (P27487 whole entry): as above

Mus musculus [10] = assay: Hypoglycemic activity in C57BL/6J mouse assessed as reduction in blood glucose level at 10 mg/kg, po measured at 20 to 80 mins by OGTT analysis; type: functional; design: scale not given: the % may be the effect or the level left; settings: time 20-80 min
[11] = Half life in mouse; type: ADME, organism-based; settings: in vivo
Homo sapiens [12] = organism: Homo sapiens; assay: Selectivity index, ratio of IC50 for DPP-4 (unknown origin) to IC50 for DPP-8 (unknown origin)
[13] = AUC in C57BL/6J mouse at 20 mg/kg, po; type: ADME, organism-based; design: dose 20 mg/kg, route po; settings: in vivo
Rattus norvegicus = assay: Antihyperglycemic activity in STZ-induced diabetic rat model assessed as reduction in blood glucose level at 100 mg/kg, po measured upto 24 hrs; type: functional; design: scale not given: the % may be the effect or the level left
Dipeptidyl peptidase 4 [14] = target: T1, Dipeptidyl peptidase 4; assay: Inhibition of DPP-4 (unknown origin) at 100 uM relative to control
Target sequence in this assay (P27487 whole entry, looked up): as the sequence (P27487 whole entry) above

Mus musculus [15] = assay: Hypoglycemic activity in ICR mouse assessed as reduction in blood glucose level at 3 mg/kg; type: ADME, organism-based; design: scale not given: the % may be the effect or the level left; settings: in vivo
Mus musculus [16] = assay: Hypoglycemic activity in ICR mouse assessed as reduction in blood glucose level at 10 mg/kg; type: ADME, organism-based; design: scale not given: the % may be the effect or the level left; settings: in vivo
Dipeptidyl peptidase 4 [17] = target: T1, Dipeptidyl peptidase 4; assay: Inhibition of human recombinant DPP-4 at 100 uM using Gly-Pro-Aminomethylcoumarin as substrate by Spectra max fluorometer analysis relative to control
Target sequence in this assay (P27487 whole entry, looked up): as the sequence (P27487 whole entry) above

[18] = target: T2, Voltage-gated inwardly rectifying potassium channel KCNH2 (Homo sapiens, UniProt Q12809); assay: Inhibition of hERG by thallium flux assay; type: toxicity; settings: human
T2 sequence (Q12809 whole entry): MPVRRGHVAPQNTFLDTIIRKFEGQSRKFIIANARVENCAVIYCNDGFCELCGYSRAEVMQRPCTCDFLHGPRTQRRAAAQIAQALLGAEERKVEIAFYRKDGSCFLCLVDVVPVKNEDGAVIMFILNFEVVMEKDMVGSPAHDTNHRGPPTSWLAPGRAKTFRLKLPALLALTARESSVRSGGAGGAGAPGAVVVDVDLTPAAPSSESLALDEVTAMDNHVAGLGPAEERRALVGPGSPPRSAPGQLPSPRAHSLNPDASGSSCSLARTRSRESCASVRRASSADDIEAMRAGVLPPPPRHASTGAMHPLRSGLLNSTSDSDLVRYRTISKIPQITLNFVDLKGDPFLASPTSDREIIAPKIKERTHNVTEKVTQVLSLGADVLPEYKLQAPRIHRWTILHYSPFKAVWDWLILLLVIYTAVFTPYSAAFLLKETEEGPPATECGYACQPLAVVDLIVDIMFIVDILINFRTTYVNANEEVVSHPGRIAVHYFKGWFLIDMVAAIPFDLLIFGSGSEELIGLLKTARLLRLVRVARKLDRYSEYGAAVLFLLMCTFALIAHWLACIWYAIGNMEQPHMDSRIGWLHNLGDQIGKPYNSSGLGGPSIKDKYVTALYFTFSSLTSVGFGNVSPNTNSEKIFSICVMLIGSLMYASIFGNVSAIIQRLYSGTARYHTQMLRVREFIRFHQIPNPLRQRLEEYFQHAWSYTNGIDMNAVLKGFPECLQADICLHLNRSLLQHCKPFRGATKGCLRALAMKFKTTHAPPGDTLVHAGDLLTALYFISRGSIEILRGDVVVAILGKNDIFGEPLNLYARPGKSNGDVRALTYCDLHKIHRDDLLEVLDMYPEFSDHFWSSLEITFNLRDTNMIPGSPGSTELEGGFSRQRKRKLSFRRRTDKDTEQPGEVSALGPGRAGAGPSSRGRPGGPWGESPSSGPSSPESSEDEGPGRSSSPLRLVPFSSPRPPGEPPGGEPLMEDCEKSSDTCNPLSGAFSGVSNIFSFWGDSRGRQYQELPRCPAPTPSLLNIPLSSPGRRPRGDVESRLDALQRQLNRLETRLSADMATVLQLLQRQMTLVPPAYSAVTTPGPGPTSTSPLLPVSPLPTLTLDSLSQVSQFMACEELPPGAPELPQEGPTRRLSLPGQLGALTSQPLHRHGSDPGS

[19] = Oral bioavailability in ICR mouse at 15 mg/kg; type: ADME, organism-based; settings: in vivo
[20] = target: T2, Voltage-gated inwardly rectifying potassium channel KCNH2; assay: Inhibition of hERG channel by patch clamp assay; type: toxicity
[21] = Blood glucose AUC in ICR mouse at 15 mg/kg; settings: in vivo
[22] = Half life in ICR mouse at 15 mg/kg; type: ADME, organism-based; settings: in vivo
Mus musculus [23] = assay: Antidiabetic activity in ICR mouse assessed as decrease in AUC of glucose at 10 mg/kg, po; type: functional; design: scale not given: the % may be the effect or the level left
Dipeptidyl peptidase 4 [24] = target: T1, Dipeptidyl peptidase 4; remark: listed apart in the source
Target sequence in this assay (P27487 whole entry): as the sequence (P27487 whole entry) above

CC#CCn1c(N2CCC[C@@H](N)C2)cc(=O)n(Cc2cn(C/C=C/C(=O)O)nn2)c1=O
Activity (Mus musculus [1]): 28.1%
IC50 (Dipeptidyl peptidase 4 [2]): 9.56 nM

CCN(CC)S(=O)(=O)c1cc(C(=O)NC[C@@H]2CCCN2C(=O)C[C@H](N)[C@H]2CCc3cc(F)c(F)cc32)c(F)cc1F
IC50 (Dipeptidyl peptidase 4 [3]): 0.87 nM

Cc1nc2cc(-c3ccccc3)nn2c(-c2ccc(Cl)cc2Cl)c1CO
Ki (Dipeptidyl peptidase 9): > 30000 nM
Ki (Dipeptidyl peptidase 8): > 30000 nM

O=[N+]([O-])c1cccc(/C=N/N2C(c3ccccc3)=Nc3ccc(I)cc3C2Nc2nccs2)c1 (configuration not stated)
IC50 [4]: 51.23 mg/L (≈ 88.3 µM)

Cc1ccccc1-c1nc2ccccn2c1CN
inhibition (Dipeptidyl peptidase 4 [5]): 59%
Ratio IC50 (Homo sapiens [6]): > 340
IC50 (Dipeptidyl peptidase 4 [7]): 290 nM
Ratio IC50 (Homo sapiens [8]): > 340

COC(=O)c1cn([C@@H]2CC[C@H](C(=O)N3CCC(F)(F)C3)C2)nn1
IC50 (Dipeptidyl peptidase 4 [9]): 720 nM

CCN(CC)S(=O)(=O)c1cccc(C(=O)NC[C@@H]2CCCN2C(=O)C[C@H](N)[C@H]2CCc3cc(F)c(F)cc32)c1
IC50 (Dipeptidyl peptidase 4 [3]): 0.87 nM

N[C@@H](CC(=O)N1CCC[C@H]1CNC(=O)c1cccc(S(N)(=O)=O)c1)[C@H]1CCc2cc(F)c(F)cc21
IC50 (Dipeptidyl peptidase 4 [3]): 0.87 nM

N[C@@H](CC(=O)N1CCC[C@H]1CNC(=O)c1cc(S(=O)(=O)N2CCOCC2)c(F)cc1F)[C@H]1CCc2cc(F)c(F)cc21
IC50 (Dipeptidyl peptidase 4 [3]): 0.87 nM

CS(=O)(=O)c1cccc(C(=O)NC[C@@H]2CCCN2C(=O)C[C@H](N)[C@H]2CCc3cc(F)c(F)cc32)c1
IC50 (Dipeptidyl peptidase 4 [3]): 1.06 nM
Activity (Mus musculus [10]): 40%

N#C[C@@H]1CCCN1C(=O)[C@@H](N)CCC(=O)N1CCn2c(nnc2C(F)(F)F)C1.O=C(O)C(F)(F)F
half-life [11]: < 24 h
Ratio IC50 (Homo sapiens [12]): > 1000

N#Cc1ccc(C(=O)NCCCC(=O)N2CCC[C@H]2C#N)cc1
AUC [13]: 54 µg·h/mL

O=C(CN1CCN(c2ccccn2)CC1)N1CCSC1
Activity (Rattus norvegicus): 18.4%

N#C[C@@H]1CCCN1C(=O)CCCNC(=O)c1ccc(C(F)(F)F)cc1
AUC [13]: 17.4 µg·h/mL

N#C[C@@H]1CCCN1C(=O)[C@@H](N)CCC(=O)N1CCn2nc(C(F)(F)F)nc2C1.O=C(O)C(F)(F)F
half-life [11]: < 24 h
Ratio IC50 (Homo sapiens [12]): > 1000

COC(=O)C1=C(C)N=C2CC(C)C3(Oc4c(Cl)c(OC)cc(OC)c4C3=O)C(O)=C2C1c1cc2cccc3c2n(c1=O)CCC3 (configuration not stated)
inhibition (Dipeptidyl peptidase 4 [14]): > 50%

N#Cc1ccc(NCCNCC(=O)N2CCC[C@H]2C#N)nc1
AUC [13]: 21.5 µg·h/mL
Activity (Mus musculus [15]): 33.48%
Activity (Mus musculus [16]): 33.51%

COC(=O)c1ccc2cc(OCC(=O)Nc3ccc(C)cc3)c(=O)oc2c1
inhibition (Dipeptidyl peptidase 4 [17]): 1.3%

N#C[C@@H]1[C@@H]2CCC[C@@H]2CN1C(=O)[C@@H](N)Cc1cc(F)c(F)cc1F
IC5 [18]: 55.3 µM
bioavailability [19]: 22.8%
IC50 [20]: > 40000 nM
glucose AUC [21]: 847 mmol/L/min
half-life [22]: 2.74 h

CC#CCn1c(N2CCC[C@@H](N)C2)cc(=O)n(Cc2cn(-c3ccccc3)nn2)c1=O
IC50 (Dipeptidyl peptidase 4 [2]): 185 nM

N[C@@H](CC(=O)N1CCC[C@H]1CNC(=O)c1cccnc1)[C@H]1CCc2cc(F)c(F)cc21
IC50 (Dipeptidyl peptidase 4 [3]): 0.87 nM

Cn1c(=O)cc(N2CCC[C@@H](N)C2)n(Cc2ccccc2C#N)c1=O [ALOGLIPTIN]
Activity (Mus musculus [23]): 42.5%

N[C@@H](CC(=O)N1CCC[C@H]1CNC(=O)c1cc(S(N)(=O)=O)c(F)cc1F)[C@H]1CCc2cc(F)c(F)cc21
IC50 (Dipeptidyl peptidase 4 [3]): 0.87 nM
Activity (Mus musculus [10]): 12%

O=C(CNc1cc2ccc3ccccc3c2oc1=O)Nc1ccc(Cl)cc1
inhibition (Dipeptidyl peptidase 4 [17]): 26.7%

CCOC(=O)c1ccc2cc(OCC(=O)N3CCOCC3)c(=O)oc2c1
inhibition (Dipeptidyl peptidase 4 [17]): 1.3%

N#Cc1ccc(C2=NNc3nc(Br)nn3C2)cc1
inhibition (Dipeptidyl peptidase 4 [14]): 48.3%

CO/N=C1\CN(c2nc3c(cc2F)c(=O)c(C(=O)O)cn3C2CC2)CC1CN (configuration not stated) [GEMIFLOXACIN]
IC50 (Dipeptidyl peptidase 4 [24]): 2700 nM
